Test results taken from patent US20210222144A1, “SELECTIVE HYDRATION OF OLEIC ACID DERIVATIVES” (priority 2018, published 2021).

Tests used:
OhyA wild type (WT) = biological target: T1, OhyA wild type (WT) (Elizabethkingia meningoseptica, UniProt C7DLJ6); test: Whole cell E. coli biotransformation, hydration of oleic acid and derivatives by OhyA wild type; type: cell-based; conditions: whole cell E. coli biocatalyst, 2 mM substrate, 30° C., pH 6.0
T1 construct: His tag with TEV site by the vector name (HISTEV); expressed in transfected cells; host or cells: E. coli BL21 Star (DE3)
Procedure: (§1) Free fatty acids were identified and analyzed by gas chromatography-mass spectrometry (GC-MS) and comparison of derived mass fragmentation spectra to authentic standards. A HP-5 column (crosslinked 5% Ph-Me Siloxane; 30 m length, 0.25 mm in diameter and 0.25 μm film thickness) on a Hewlett-Packard 6890 Series II GC equipped with a mass selective detector was used. Sample aliquots of 1 μL were injected in split mode (split ratio 30:1) at 240° C. injector temperature and 290° C. detector temperature with N2 as carrier at a flow rate set to 36 cm s^−1 in constant flow mode. The temperature program was as follows: 100° C. for 1 min, 15° C. min^−1 to 300° C., hold for 5 min. The total run time was 19.33 min. The mass selective detector was operated in a mass range of 50-400 amu at an electron multiplier voltage of 1765 V. Results were evaluated with the GC-MS Data Analysis software (Agilent Technologies, Austria).
(§2) OhyA was recombinantly expressed in E. coli. First, a pre-culture was inoculated with E. coli BL21 Star (DE3) cells harboring pMS470-HISTEV-OhyA wild type enzyme or variants, and was grown in LB supplemented with 100 μg mL^−1 ampicillin at 28° C. and 130 rpm overnight. Main cultures were inoculated to an OD600 of 0.1 in auto induction medium (AIM)—Terrific Broth Base including Trace elements (Formedium, UK) containing 100 μg mL^−1 ampicillin. Recombinant protein was expressed at 28° C. and 130 rpm for 22 h. Cells were harvested by centrifugation for 10 min at 4,400×g and 22° C. and were instantly used for whole cell biotransformation or were frozen at −20° C. until protein purification.
(§3) For bioconversion assays of oleic acid (OA) and OA derivatives, i.e. substrates (1) to (10), 50 OD600 units of thus prepared cells, which are corresponding to a cell dry weight of 50 mg, were resuspended in 50 mM HEPES, pH 6.0, supplemented with 100 mM glucose and 0.2 mM FAD in Pyrex® glass culture tubes (Corning, N.Y.). Biotransformation at 1 mL scale were started by adding substrate to a final concentration of 2 mM from an ethanolic stock solution (100 mM). n-pentadecanoic acid (1 mM) was used as internal standard. The reactions were conducted in the presence of 2% (v/v) of ethanol as co-solvent at 30° C. and shaking at 150 rpm at a defined angle of the Pyrex® tubes (55°). Biotransformation were performed for 22 h or 96 h. The assays were quenched by acidification to pH 2.0 with 0.12 M HCl, and fatty acid derivatives were extracted twice with 2 mL of ethyl acetate while agitating on a Vibrax VXR basic shaker (IKA, Germany) for 30 min. The suspension was centrifuged for 5 min at 2,900×g and 22° C. to improve the separation of the phases. Combined organic phases were concentrated under a N2 stream. Fatty acid derivatives were silylated with 10 μL of pyridine and 50 μL of N,O-bis(trimethylsilyl)trifluoroacetamide (BSTFA). After incubation for 30 min at 500 rpm, extracts were diluted with 200 μL of ethyl acetate and analyzed by GC-MS. […]

OhyA Q265A/T436A/N438A = biological target: T2, OhyA Q265A/T436A/N438A (Elizabethkingia meningoseptica, UniProt C7DLJ6, N438A/Q265A/T436A); test: Whole cell E. coli biotransformation, hydration of oleic acid and derivatives by mutant OhyA Q265A/T436A/N438A; type: cell-based; conditions: for relative hydration activity compared to wt-OhyA: OhyA Q265A/T436A/N438A versus wt-OhyA; for e.e. of hydrated product: abs. conf. at C-10: R, table does not separate WT and mutant; for Apparent hydration activity normalized for biomass, OhyA Q265A/T436A/N438A: whole cell E. coli biocatalyst, 2 mM substrate, 30° C., pH 6.0
T2 construct: His tag with TEV site by the vector name (HISTEV); expressed in transfected cells; host or cells: E. coli BL21 Star (DE3)
Procedure: as §1, §2, §3

OhyA Q265A/N438A = biological target: T3, OhyA Q265A/N438A (Elizabethkingia meningoseptica, UniProt C7DLJ6, N438A/Q265A); test: Bioconversion with modified OhyA variant Q265A/N438A; type: cell-based; conditions: OhyA Q265A/N438A in bioconversions
T3 construct: His tag with TEV site by the vector name (HISTEV); expressed in transfected cells; host or cells: E. coli BL21 Star (DE3)
Procedure: as §2
For bioconversion assays of oleic acid (OA) and OA derivatives, i.e. substrates (1) to (10), 50 OD600 units of thus prepared cells, which are corresponding to a cell dry weight of 50 mg, were resuspended in 50 mM HEPES, pH 6.0, supplemented with 100 mM glucose and 0.2 mM FAD in Pyrex® glass culture tubes (Corning, N.Y.). Biotransformation at 1 mL scale were started by adding substrate to a final concentration of 2 mM from an ethanolic stock solution (100 mM). n-pentadecanoic acid (1 mM) was used as internal standard. […] After incubation for 30 min at 500 rpm, extracts were diluted with 200 μL of ethyl acetate and analyzed by GC-MS.

[1] = biological target: T4, mutant OhyA Q265A/T436A/N438A (Elizabethkingia meningoseptica, UniProt C7DLJ6, N438A/Q265A/T436A); test: Anaerobic in vitro hydration with purified OhyA after reduction of the FAD cofactor; type: biochemical; conditions: purified enzyme, reduced FAD, overnight incubation, wt-OhyA compared with mutant
T4 construct: His tag with TEV site by the vector name (HISTEV); made in house; host or cells: E. coli BL21 Star (DE3)
Procedure: For purification of the recombinant OhyA, cell pellets were resuspended in 50 mM HEPES, pH 7.4, containing 10 mM imidazole. Cells were lysed by ultrasonication for 4 min with a Sonifier® 250 (Branson, Danbury, Conn.) setting the duty cycle to 80% and the output control to level 8. Cell free extract (CFE) was separated from the total cell lysate (TCL) by centrifugation for 35 min at 48,300×g and 4° C., and was filtered through 0.22 μm filters (Millipore, Bedford, Mass.) prior to loading it onto a pre-equilibrated self-packed Ni-NTA affinity chromatography column (GE Healthcare, United Kingdom). Prior to any further analyses, purified OhyA was incubated with a 10-fold molar excess of FAD over night at 4° C. Unbound FAD was removed from the protein aliquot by buffer exchange via PD-10 desalting columns (GE Healthcare, United Kingdom) according to the recommended protocol.
For reduction of the enzyme-bound flavin cofactor, wt-OhyA and mutant Q265A/T436A/N438A were diluted in 50 mM HEPES, pH 7.4, containing 50 mM NaCl, 5 mM EDTA, 1 μM 5-deazariboflavin and 4 μM methyl viologen to give an absorption of approximately 0.2 AU at 440 nm. The solution was transferred to a cuvette and oxygen was removed by incubation for at least 2 h in a glove box. Afterwards, the cofactor was reduced by anaerobic photoreduction or chemical reduction with dithiothreitol (DTT). […]

[2] = biological target: oleate hydratase from Elizabethkingia meningoseptica (OhyA, EC 4.2.1.53) (Elizabethkingia meningoseptica, UniProt C7DLJ6); conditions: wild-type OhyA, without co-factor recycling; cited from earlier work
Sequence of oleate hydratase from Elizabethkingia meningoseptica (OhyA, EC 4.2.1.53) (C7DLJ6 whole entry): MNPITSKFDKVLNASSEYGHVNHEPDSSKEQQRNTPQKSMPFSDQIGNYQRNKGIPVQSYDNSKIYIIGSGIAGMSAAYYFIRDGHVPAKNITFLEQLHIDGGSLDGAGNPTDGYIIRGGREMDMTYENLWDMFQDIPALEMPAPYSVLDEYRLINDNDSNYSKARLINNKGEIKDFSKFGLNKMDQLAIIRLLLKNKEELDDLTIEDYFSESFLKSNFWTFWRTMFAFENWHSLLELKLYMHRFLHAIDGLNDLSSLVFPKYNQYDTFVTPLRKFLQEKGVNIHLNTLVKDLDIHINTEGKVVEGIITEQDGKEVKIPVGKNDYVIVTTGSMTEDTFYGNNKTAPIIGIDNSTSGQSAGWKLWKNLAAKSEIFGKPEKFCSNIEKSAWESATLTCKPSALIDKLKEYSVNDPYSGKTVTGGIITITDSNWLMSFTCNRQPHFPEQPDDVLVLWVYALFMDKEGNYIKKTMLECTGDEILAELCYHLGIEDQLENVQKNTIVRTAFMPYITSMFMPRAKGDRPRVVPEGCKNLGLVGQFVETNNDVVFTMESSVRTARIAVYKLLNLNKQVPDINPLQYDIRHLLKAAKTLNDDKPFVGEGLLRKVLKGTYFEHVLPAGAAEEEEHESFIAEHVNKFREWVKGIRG

T2 sequence (C7DLJ6 whole entry Q265A/T436A/N438A): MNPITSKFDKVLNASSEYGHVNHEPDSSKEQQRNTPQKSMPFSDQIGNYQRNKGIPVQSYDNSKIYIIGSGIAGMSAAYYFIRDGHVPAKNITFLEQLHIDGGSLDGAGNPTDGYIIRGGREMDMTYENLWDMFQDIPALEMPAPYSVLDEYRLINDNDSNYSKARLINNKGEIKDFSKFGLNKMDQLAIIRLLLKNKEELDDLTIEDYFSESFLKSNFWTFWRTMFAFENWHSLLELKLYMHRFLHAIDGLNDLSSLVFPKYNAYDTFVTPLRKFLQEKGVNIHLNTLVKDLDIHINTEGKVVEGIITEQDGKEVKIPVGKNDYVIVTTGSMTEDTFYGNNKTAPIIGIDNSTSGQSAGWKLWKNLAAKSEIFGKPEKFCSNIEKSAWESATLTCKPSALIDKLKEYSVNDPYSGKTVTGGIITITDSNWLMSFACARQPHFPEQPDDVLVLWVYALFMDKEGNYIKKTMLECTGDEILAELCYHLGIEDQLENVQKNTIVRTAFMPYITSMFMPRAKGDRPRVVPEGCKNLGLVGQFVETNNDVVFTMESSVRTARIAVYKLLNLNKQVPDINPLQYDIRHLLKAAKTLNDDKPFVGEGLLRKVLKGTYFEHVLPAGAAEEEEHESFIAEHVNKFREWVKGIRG
T1 sequence (C7DLJ6 whole entry): as the sequence (C7DLJ6 whole entry) above
T4 sequence (C7DLJ6 whole entry Q265A/T436A/N438A): as the sequence (C7DLJ6 whole entry Q265A/T436A/N438A) above
T3 sequence (C7DLJ6 whole entry Q265A/N438A): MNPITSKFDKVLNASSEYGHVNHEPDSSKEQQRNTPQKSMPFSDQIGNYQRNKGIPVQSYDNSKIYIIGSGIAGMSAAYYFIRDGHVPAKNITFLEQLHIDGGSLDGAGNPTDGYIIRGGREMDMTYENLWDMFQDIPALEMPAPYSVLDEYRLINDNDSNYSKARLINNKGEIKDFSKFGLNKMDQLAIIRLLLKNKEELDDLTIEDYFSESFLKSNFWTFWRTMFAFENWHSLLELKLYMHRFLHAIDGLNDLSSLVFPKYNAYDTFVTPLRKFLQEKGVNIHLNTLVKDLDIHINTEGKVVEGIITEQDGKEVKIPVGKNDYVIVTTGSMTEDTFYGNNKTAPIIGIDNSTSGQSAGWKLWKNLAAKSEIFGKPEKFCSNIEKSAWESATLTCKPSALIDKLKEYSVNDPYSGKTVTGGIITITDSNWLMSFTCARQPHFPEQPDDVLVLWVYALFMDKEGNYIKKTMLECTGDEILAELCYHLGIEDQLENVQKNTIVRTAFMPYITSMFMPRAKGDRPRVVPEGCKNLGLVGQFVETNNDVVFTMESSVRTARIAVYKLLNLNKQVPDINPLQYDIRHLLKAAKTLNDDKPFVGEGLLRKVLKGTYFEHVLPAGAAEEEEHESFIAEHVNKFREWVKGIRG

| SMILES | Apparent hydration activity normalized for biomass, OhyA WT (OhyA wild type (WT)) | relative hydration activity compared to wt-OhyA (OhyA Q265A/T436A/N438A) | e.e. of hydrated product (OhyA Q265A/T436A/N438A) | Apparent hydration activity normalized for biomass, OhyA Q265A/T436A/N438A (OhyA Q265A/T436A/N438A) | enhanced relative hydration activity (OhyA Q265A/N438A) | peak at the expected retention time of the hydrated product (GC-MS) [1] | enantiomeric excess (ee) of (R)-10-hydroxy stearic acid [2] |
| --- | --- | --- | --- | --- | --- | --- | --- |
| CCCCCCCC/C=C\CCCCCCCC(=O)NO [Entry 4, N-hydroxy oleamide] | 3.4 ± 0.7 mU g^−1 CDW | at least 5 fold | >99% | 13.4 ± 2.5 mU g^−1 CDW | at least 5 fold |  |  |
| CCCCCCCC/C=C\CCCCCCCCO [Entry 5, oleyl alcohol] | 8.4 ± 2.1 mU g^−1 CDW | at least 2 fold | >99% | 15.5 ± 1.0 mU g^−1 CDW |  |  |  |
| CCCCCCCC/C=C\CCCCCCCC(=O)OC(C)C [Entry 8, i-propyl oleate] | 0.1 ± 0.1 mU g^−1 CDW |  | >99% | 1.5 ± 0.1 mU g^−1 CDW |  |  |  |
| CCCCCCCC/C=C\CCCCCCCC(=O)OCC [Entry 7, ethyl oleate] | 0.2 ± 0.1 mU g^−1 CDW | 6 fold | >99% | 1.7 ± 0.1 mU g^−1 CDW |  |  |  |
| CCCCCCCC/C=C\CCCCCCCC(=O)OCCC [Entry 9, n-propyl oleate] | 0.2 ± 0.1 mU g^−1 CDW | 20 fold | >99% | 0.9 ± 0.1 mU g^−1 CDW |  |  |  |
| CCCCCCCC/C=C\CCCCCCCC(=O)OC [Entry 6, methyl oleate] | 0.3 ± 0.1 mU g^−1 CDW | 6 fold | >99% | 2.5 ± 0.2 mU g^−1 CDW |  | only in the case of the variant |  |
| CCCCCCCC/C=C\CCCCCCCC(=O)O [Entry 1, oleic acid] | 26.3 ± 0.2 mU g^−1 CDW |  | >99% | 28.4 ± 0.3 mU g^−1 CDW |  |  | at least 98% |
| CCCCCCCC/C=C\CCCCCCCC(N)=O [Entry 3, oleamide] | 11.1 ± 0.7 mU g^−1 CDW |  | >99% | 10.7 ± 0.3 mU g^−1 CDW |  |  |  |
| CCCCCCCC/C=C\CCCCCCCCN [Entry 2, oleyl amine] |  |  | >99% |  |  |  |  |
| CCCCCCCC/C=C\CCCCCCCC(=O)OCCCC [Entry 10, n-butyl oleate] | 0.1 ± 0.1 mU g^−1 CDW |  | >99% | 0.8 ± 0.1 mU g^−1 CDW |  |  |  |
